# In patent US8563530B2, “Purine nucleoside phosphoramidate” (Gilead Pharmassel LLC, priority 2010, dated 2013):
# How the values were obtained:
# [1] = system: HCV replicon RNA-containing Huh7 cells (clone A cells); assay: HCV replicon assay; type: cell-based; settings: for Replicon assay result in combination with compound 1: synergism: assayed in combination with compound 1
# Procedure: HCV replicon assay. HCV replicon RNA-containing Huh7 cells (clone A cells; Apath, LLC, St. Louis, Mo.) were kept at exponential growth in Dulbecco's modified Eagle's medium (high glucose) containing 10% fetal bovine serum, 4 mM L-glutamine and 1 mM sodium pyruvate, 1× nonessential amino acids, and G418 (1,000 μg/ml). Antiviral assays were performed in the same medium without G418. Cells were seeded in a 96-well plate at 1,500 cells per well, and test compounds were added immediately after seeding. Incubation time 4 days. At the end of the incubation step, total cellular RNA was isolated (RNeasy 96 kit; Qiagen). Replicon RNA and an internal control (TaqMan rRNA control reagents; Applied Biosystems) were amplified in a single-step multiplex RT-PCR protocol as recommended by the manufacturer.
# To express the antiviral effectiveness of a compound, the threshold RT-PCR cycle of the test compound was subtracted from the average threshold RT-PCR cycle of the no-drug control (ΔCtHCV). A ΔCt of 3.3 equals a 1-log 10 reduction (equal to the 90% effective concentration [EC90]) in replicon RNA levels. The cytotoxicity of the test compound could also be expressed by calculating the ΔCtrRNA values. The ΔΔCt specificity parameter could then be introduced (ΔCtHCV−ΔCtrRNA), in which the levels of HCV RNA are normalized for the rRNA levels and calibrated against the no-drug control. Compound 1 was tested for its biological properties based on the preceding assay.
# [2] = GVS analysis (hygroscopicity); type: physicochemical
smiles,measurement,setting,value
"COc1nc(N)nc2c1ncn2[C@@H]1O[C@H](CO[P@@](=O)(N[C@@H](C)C(=O)OC(C)C)Oc2ccccc2)[C@@H](O)[C@@]1(C)F [Compound 1, SP-(2S)-isopropyl 2-(((((2R,3R,4R,5R)-5-(2-amino-6-methoxy-9H-purin-9-yl)-4-fluoro-3-hydroxy-4-methyltetrahydrofuran-2-yl)methoxy)(phenoxy)phosphoryl)amino)propanoate]",EC90,"[1]; Hepatitis C virus, Huh-7, 96 h, clone A cells, incubation time 4 days, replicon RNA by RT-PCR, 1-log 10 reduction, read-out: CloneA EC90",20 nM
"COc1nc(N)nc2c1ncn2[C@@H]1O[C@H](CO[P@@](=O)(N[C@@H](C)C(=O)OC(C)C)Oc2ccccc2)[C@@H](O)[C@@]1(C)F.O [Compound 1.H2O, (S)-2-{(S)-[(1R,4R,5R)-5-(2-Amino-6-methoxy-purin-9-yl)-4-(R)-fluoro-3-hydroxy-4-methyl-tetrahydro-furan-2-ylmethoxy]-phenoxy-phosphorylamino}-propionic acid isopropyl ester monohydrate]",GVS hygroscopicity,[2],very low hygroscopicity
same,GVS reversible weight gain,[2]; at 90% RH,0.47 % w/w
CC(C)(C)OC(=O)N[C@H]1CCCCC/C=C\[C@@H]2C[C@@]2(C(=O)NS(=O)(=O)C2CC2)NC(=O)[C@@H]2C[C@@H](OC(=O)N3Cc4cccc(F)c4C3)CN2C1=O [ITMN-191],Replicon assay result in combination with compound 1: synergism,[1],synergism
CC(C)OC(=O)[C@H](C)N[P@](=O)(OC[C@H]1O[C@@H](n2ccc(=O)[nH]c2=O)[C@](C)(F)[C@@H]1O)Oc1ccccc1 [compound E],Replicon assay result in combination with compound 1: synergism,[1],synergism
